# Measurements: PubChem BioAssay AID256 (DTP/NCI, 2004)
# Values joined by “and” are separate entries in the source; they are usually repeats but may differ in a detail not shown here. Equal entries are not always repeated. Inconclusive results and toxic doses are left out.
# System: CD2F1 mice, L1210 leukemia ip, survival T/C
# Experiment: NCI In Vivo Anticancer Drug Screen. Data for tumor model L1210 Leukemia (intraperitoneal) in CD2F1 (CDF1) mice
# Settings: higher = longer survival
# How it was run: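 Ratio T/C, where T is the treated-group value and C the vehicle-dosed control value, from mice implanted with a transplantable tumor.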
# [1] = endpoint: mean survival time, dose: 100.0 mg/kg/injection, schedule: Q01DX009 (ip), vehicle: saline with Tween-80
# [2] = endpoint: mean survival time, dose: 200.0 mg/kg/injection, schedule: Q01DX009 (ip), vehicle: saline with Tween-80
# [3] = endpoint: mean survival time, dose: 50.0 mg/kg/injection, schedule: Q01DX009 (ip), vehicle: saline with Tween-80
# [4] = endpoint: mean survival time, dose: 100.0 mg/kg/injection, schedule: Q01DX001 (ip), vehicle: saline with Tween-80
# [5] = endpoint: mean survival time, dose: 200.0 mg/kg/injection, schedule: Q01DX001 (ip), vehicle: saline with Tween-80
# [6] = endpoint: median survival time, dose: 25.0 mg/kg/injection, schedule: Q01DX005 (ip), vehicle: saline with Tween-80
# [7] = endpoint: median survival time, dose: 50.0 mg/kg/injection, schedule: Q01DX005 (ip), vehicle: saline with Tween-80
# [8] = endpoint: median survival time, dose: 100.0 mg/kg/injection, schedule: Q01DX005 (ip), vehicle: saline with Tween-80
# [9] = endpoint: median survival time, dose: 200.0 mg/kg/injection, schedule: Q01DX005 (ip), vehicle: saline with Tween-80
compound,measurement,setting,value
CC(=O)N(c1c(-c2ccccc2)nc2ccccc2c1C(=O)O)C1CCCCC1,T/C,[1],100 % of control
same,T/C,"endpoint: mean survival time, dose: 100.0 mg/kg/injection, schedule: Q04DX003 (ip), vehicle: saline with Tween-80",102 % of control
same,T/C,[2],96 % of control
same,T/C,"endpoint: mean survival time, dose: 200.0 mg/kg/injection, schedule: Q04DX003 (ip), vehicle: saline with Tween-80",98 % of control
same,T/C,"endpoint: mean survival time, dose: 400.0 mg/kg/injection, schedule: Q01DX009 (ip), vehicle: saline with Tween-80",90 % of control
same,T/C,"endpoint: mean survival time, dose: 400.0 mg/kg/injection, schedule: Q04DX003 (ip), vehicle: saline with Tween-80",90 % of control
O=C(O)O,T/C,"endpoint: mean survival time, dose: 200.0 mg/kg/injection, schedule: Q01DX001 (ip), vehicle: saline",105 % of control
same,T/C,[2],107 % of control
same,T/C,"endpoint: mean survival time, dose: 400.0 mg/kg/injection, schedule: Q01DX001 (ip), vehicle: saline",100 % of control
CC(=O)c1cc2ccccc2c2ccccc12,T/C,[3],89 % of control
same,T/C,[1],97 % of control
same,T/C,[2],101 % of control
O=C(Sc1cccc2ccccc12)c1ccc([N+](=O)[O-])cc1,T/C,[4],105 % of control
same,T/C,[5],92 % of control
same,T/C,"endpoint: mean survival time, dose: 400.0 mg/kg/injection, schedule: Q01DX001 (ip), vehicle: saline with Tween-80",101 % of control
C=CC(=O)OCCCS(=O)(=O)[O-].C=CC(=O)OCCCS(=O)(=O)[O-].NC1CCCCC1N.[Pt+4],T/C,"endpoint: median survival time, dose: 3.12 mg/kg/injection, schedule: Q04DX003 (ip), vehicle: saline with Tween-80",108 % of control
same,T/C,"endpoint: median survival time, dose: 6.25 mg/kg/injection, schedule: Q04DX003 (ip), vehicle: saline with Tween-80",119 % of control and 109 % of control
same,T/C,"endpoint: median survival time, dose: 12.5 mg/kg/injection, schedule: Q04DX003 (ip), vehicle: saline with Tween-80",119 % of control and 109 % of control
same,T/C,"endpoint: median survival time, dose: 25.0 mg/kg/injection, schedule: Q04DX003 (ip), vehicle: saline with Tween-80",113 % of control and 120 % of control
same,T/C,"endpoint: median survival time, dose: 100.0 mg/kg/injection, schedule: Q04DX003 (ip), vehicle: saline with Tween-80",158 % of control and 168 % of control
same,T/C,"endpoint: median survival time, dose: 200.0 mg/kg/injection, schedule: Q04DX003 (ip), vehicle: saline with Tween-80",204 % of control and 301 % of control
CCn1c(N)c2c(ncn2Cc2ccccc2)nc1=S,T/C,"endpoint: mean survival time, dose: 12.5 mg/kg/injection, schedule: Q01DX001 (ip), vehicle: acetone",100 % of control
same,T/C,"endpoint: mean survival time, dose: 12.5 mg/kg/injection, schedule: Q04DX003 (ip), vehicle: saline with Tween-80",98 % of control
same,T/C,"endpoint: mean survival time, dose: 25.0 mg/kg/injection, schedule: Q01DX001 (ip), vehicle: acetone",100 % of control
same,T/C,"endpoint: mean survival time, dose: 25.0 mg/kg/injection, schedule: Q04DX003 (ip), vehicle: saline with Tween-80",98 % of control
same,T/C,"endpoint: mean survival time, dose: 50.0 mg/kg/injection, schedule: Q01DX001 (ip), vehicle: acetone",103 % of control
same,T/C,"endpoint: mean survival time, dose: 50.0 mg/kg/injection, schedule: Q04DX003 (ip), vehicle: saline with Tween-80",89 % of control
O=c1ccn2cnc3c(ncn3C3OC(CO)C(O)C3O)c2n1 (centres undefined),T/C,"endpoint: median survival time, dose: 12.5 mg/kg/injection, schedule: Q01DX005 (ip), vehicle: saline with Tween-80",105 % of control
same,T/C,[6],98 % of control
same,T/C,[7],98 % of control
same,T/C,[8],103 % of control
same,T/C,[9],103 % of control
Cc1cccc[n+]1CCCS(=O)(=O)[O-],T/C,"endpoint: mean survival time, dose: 100.0 mg/kg/injection, schedule: Q04DX003 (ip), vehicle: saline",104 % of control
same,T/C,"endpoint: mean survival time, dose: 200.0 mg/kg/injection, schedule: Q04DX003 (ip), vehicle: saline",102 % of control
same,T/C,"endpoint: mean survival time, dose: 400.0 mg/kg/injection, schedule: Q04DX003 (ip), vehicle: saline",101 % of control
NC(=O)c1[nH]cnc1O,T/C,[6],109 % of control and 110 % of control
same,T/C,[7],113 % of control and 112 % of control
same,T/C,[8],116 % of control and 119 % of control
same,T/C,"endpoint: median survival time, dose: 144.0 mg/kg/injection, schedule: Q01DX005 (ip), vehicle: saline with Tween-80",117 % of control
same,T/C,[9],118 % of control and 120 % of control
same,T/C,"endpoint: median survival time, dose: 400.0 mg/kg/injection, schedule: Q01DX005 (ip), vehicle: saline with Tween-80",120 % of control
NCCCN1CCCCC1,T/C,"endpoint: mean survival time, dose: 100.0 mg/kg/injection, schedule: Q04DX002 (ip), vehicle: saline",102 % of control
same,T/C,"endpoint: mean survival time, dose: 200.0 mg/kg/injection, schedule: Q04DX002 (ip), vehicle: saline",95 % of control
same,T/C,"endpoint: mean survival time, dose: 400.0 mg/kg/injection, schedule: Q04DX002 (ip), vehicle: saline",102 % of control
O=C(NC/C=C/Br)Nc1cccc2c1CCCC2,T/C,[3],94 % of control
same,T/C,[4],89 % of control
same,T/C,[1],99 % of control
same,T/C,[5],86 % of control
same,T/C,[2],88 % of control
